Source: article PMC8748916, “Microbial enzymes induce colitis by reactivating triclosan in the mouse gastrointestinal tract” (Nature Communications, 2022)
Values joined by “and” are separate entries in the source; they are usually repeats but may differ in a detail not shown here. Identical values can stand only once.

Columns and labels:
[1] = Antibiotic suppression of gut microbiota: kinetics of TCS colonic metabolism after one-time oral gavage; conditions: within the 24-h period; 8 mg/kg TCS oral gavage
[2] = LC-MS/MS profiling of TCS metabolism in mice (TCS via diet for 4 weeks); conditions: for concentration of free TCS in the colon digesta: mean; for concentration of TCS, TCS-G, TCS-Sulfate: individual mice
MC38 cells = test: Inflammatory response of MC38 intestinal epithelial cells (Il-6 RT-qPCR, IL-6 ELISA); type: cell-based, mouse
Method: MC38 intestinal epithelial cells were cultured in Dulbecco’s Modified Eagle Medium (DMEM) supplemented with 10% fetal bovine serum (FBS) and incubated at 37 °C under an atmosphere of 5% CO2. MC38 cells were seeded at 20% confluency and left to settle overnight. Cells were then treated with either 1 μM TCS, TCS-G, or vehicle (DMSO). After 48 h, cells were harvested for RT-qPCR analysis. Cell medium was collected for ELISA analysis using the CBA Mouse Inflammation Kit (BD Sciences) according to the manufacturer’s instructions, and data were acquired using a BD LSR Fortessa flow cytometer (BD Biosciences) and analyzed using FlowJo software (Treestar).
(§1) Total RNA of colon tissues and MC38 cells were isolated using Trizol reagent (Ambion) according to the manufacturer’s instruction. RNA was reverse transcribed into cDNA using the High Capacity cDNA Reverse Transcription kit (Applied Biosystem) according to the manufacturer’s instructions. In all, 20 μL PCR reactions were prepared using the Maxima SYBR Green Master Mix (Thermo Fisher Scientific), and qPCR was carried out using a DNA Engine Opticon System (Bio-Rad Laboratories). Mouse-specific primer sequences (Thermo Fisher Scientific) used to detect inflammatory biomarkers are listed in Supplementary Table S6. Gapdh expression was used as an internal control.
a. Cultured murine intestinal epithelial MC38 cells were treated with 1 μM of TCS or TCS-G for 48 h prior to
studying inflammatory responses. b. TCS increases the expression of Il-6, which encodes the pro-inflammatory
n = 3 per group from three independent experiments, * P < 0.05, ** P < 0.01, *** P < 0.001.

[3] = Antibiotic suppression of gut microbiota: TCS colonic metabolism in mice (80 ppm TCS diet, 4 weeks); type: in vivo; conditions: 80 ppm TCS via diet 4 weeks; antibiotic cocktail vs none
Text: This antibiotic composition was used in previous studies by others[20],[21] and us[22],[23]. […] After another 4 weeks, the mice were sacrificed, and their tissues were collected for LC-MS/MS analysis.

[4] = TCS colonic metabolism in conventional vs germ-free Swiss Webster mice; type: in vivo; conditions: 6 h after oral gavage of 8 mg/kg TCS, individual mice
[5] = LC-MS/MS of TCS and its metabolites in human stool and urine after use of TCS-containing personal care products; type: in vivo; conditions: for TCS metabolites in human stool / TCS metabolites in human urine: Treatment TCS, individual subjects;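 as to Profile in stool (%): molar share of summed TCS plus TCS-G plus TCS-sulfate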;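 as to Profile in urine (%): molar share of summed TCS plus TCS-G plus TCS-sulfate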;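 as to average molar concentration ratio: molar share of summed TCS plus TCS-G plus TCS-sulfate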
Text: To broaden our understanding of TCS metabolic profiles in the gut, we next analyzed TCS metabolism in human subjects. We utilized urine and stool samples from a previous study in which the recruited human subjects were first subjected to a washout period (no usage of TCS-containing products), then were randomly assigned to two groups that used personal care products like toothpaste with or without TCS for up to four months (see the scheme of the experiment in Fig. 1c)[15]. Previous data had established that humans are primarily exposed to TCS via toothpaste that provides a direct oral route to the gastrointestinal tract[16],[17].

DSS-induced colitis = DSS-induced colitis in mice: TCS with or without GUSi (colon length, histology, FACS, qRT-PCR); type: in vivo
Text: After another 3 weeks, the mice were stimulated with 2% DSS (molecular weight = 36–50 KDa, MP Biomedicals, Solon, OH) in drinking water for 6 days to induce colitis. At end of the experiment, the mice were sacrificed for analysis.
as §1
Distal colon tissues were dissected, washed with cold PBS, and digested with Hank’s balanced salt solution (HBSS, Lonza) supplemented with 1 mM dithiothreitol (DTT) and 5 mM EDTA at 4 °C (colon […] cells). The released cells were stained with FITC-conjugated anti-mouse CD45 (BioLegend, Clone: 30-F11), PerCP/Cy5.5-conjugated anti-mouse F4/80 (BioLegend, Clone: BM8), and PE/Cy7-conjugated anti-mouse Ly-6G/Ly-6C (GR-1) (BioLegend, Clone: RB6-8C5) with a 1:100 diluted solution. Cells were stained with Zombie Violet^TM dye (Zombie Violet^TM Fixable Viability Kit; BioLegend) according to the manufacturer’s instructions to exclude dead cells. Gating and cell identification strategies are as follows: briefly, cell doublets and clumps were eliminated using FSC-A gating and debris was eliminated using FSC-A vs SSC-A. Dead cells were gated out using Zombie Violet™ dye. Flow cytometry data were acquired on a BD LSR Fortessa^TMcell analyzer (Becton Dickinson, Franklin Lakes, NJ) and analyzed using FlowJo software (FlowJo, LLC). Gating strategies used for the identification of major immune cell populations are shown in Supplementary Fig. S17.
The dissected colon tissues were fixed in 10% neutral buffered formalin (Thermo Fisher Scientific) for 48 h. After dehydration, the tissues were embedded in paraffin and sliced ([…]) by Rotary Microtome (Thermo Fisher Scientific). The slices were dewaxed in serial xylene and rehydrated through ethanol solutions, stained with hematoxylin and eosin (Sigma-Aldrich), and images were obtained under 200× magnification (BZ-X700 microscope, Keyence, Itasca, IL). The histologic scores were evaluated by a blinded observer according to the following measures: crypt architecture, degree of inflammatory cell infiltration, muscle thickening, goblet cell depletion, and crypt abscess. The histologic damage score is the sum of each individual score.

[6] = treatment time 0 months (after washout)
[7] = human stool, TCS-exposed subjects
[8] = human urine, TCS-exposed subjects
[9] = 80 ppm TCS via diet vs vehicle, DSS-induced colitis, without GUSi
[10] = DSS colitis mice, FACS, individual animals, Fig.5d
[11] = DSS colitis mice, gene expression, individual animals, Fig.5e

Oc1cc(Cl)ccc1Oc1ccc(Cl)cc1Cl [TCS, Triclosan]
reduction of AUC in colon digesta by antibiotic treatment [1]: ~ 40%
concentration of free TCS in the colon digesta ([2]; 1 ppm TCS in diet 4 weeks): 1.5 pmol/mg tissue
concentration of free TCS in the colon digesta ([2]; 10 ppm TCS in diet 4 weeks): 14.7 pmol/mg tissue
concentration of free TCS in the colon digesta ([2]; 80 ppm TCS in diet 4 weeks): 92.2 pmol/mg tissue
concentration of TCS, TCS-G, TCS-Sulfate ([2]; Cecum (digesta), 80 ppm TCS via diet 4 weeks): 109.26 pmol/mg and 94.56 pmol/mg and 76.97 pmol/mg
concentration of TCS, TCS-G, TCS-Sulfate ([2]; Feces, 10 ppm TCS in diet 4 weeks): 22.61 pmol/mg and 75.8 pmol/mg
concentration of TCS, TCS-G, TCS-Sulfate ([2]; Feces, 80 ppm TCS in diet 4 weeks): 290.88 pmol/mg and 142.03 pmol/mg
concentration of TCS, TCS-G, TCS-Sulfate ([2]; Heart, 80 ppm TCS via diet 4 weeks): 0.98 pmol/mg and 0.71 pmol/mg and 0.63 pmol/mg
concentration of TCS, TCS-G, TCS-Sulfate ([2]; SI 1st section (digesta), 80 ppm TCS via diet 4 weeks): 15.09 pmol/mg and 9.94 pmol/mg and 15.65 pmol/mg and 19.61 pmol/mg
concentration of TCS, TCS-G, TCS-Sulfate ([2]; SI 2nd section (digesta), 80 ppm TCS via diet 4 weeks): 19.75 pmol/mg and 18.37 pmol/mg and 9.51 pmol/mg and 14.12 pmol/mg and 15.69 pmol/mg and 13.92 pmol/mg and 18.94 pmol/mg and 9.21 pmol/mg and 13.42 pmol/mg and 3.48 pmol/mg
concentration of TCS, TCS-G, TCS-Sulfate ([2]; SI 3rd section (digesta), 80 ppm TCS via diet 4 weeks): 29.24 pmol/mg and 24.80 pmol/mg and 7.10 pmol/mg and 13.01 pmol/mg and 17.21 pmol/mg and 23.02 pmol/mg and 19.18 pmol/mg and 15.52 pmol/mg and 17.98 pmol/mg and 27.55 pmol/mg
concentration of TCS, TCS-G, TCS-Sulfate ([2]; SI 4th section (digesta), 80 ppm TCS via diet 4 weeks): 31.18 pmol/mg and 38.07 pmol/mg and 17.93 pmol/mg and 37.99 pmol/mg and 55.42 pmol/mg and 35.20 pmol/mg and 31.30 pmol/mg and 21.74 pmol/mg and 18.77 pmol/mg and 46.26 pmol/mg
share of TCS metabolites found ([2]; digesta of the 4th section of the mouse small intestine, 80 ppm TCS via diet 4 weeks): 36.9%
share of TCS metabolites found ([2]; fecal content, 80 ppm TCS via diet 4 weeks): 99.1%
share of detected TCS species present as free TCS ([2]; gut sections (colon digesta, cecum digesta, feces), 1, 10 and 80 ppm TCS via diet 4 weeks): 94-100%
Il-6 gene expression (MC38 cells; 1 µM, 48 h): increased
medium concentration of IL-6 (ELISA) (MC38 cells; 1 µM, 48 h): increased
Il-6 (Fig. S16b) (MC38 cells; MC38 cells, gene expression, replicates): 2.497 and 4.058 and 2.001 and 8.229 and 6.742 and 2.645 and 3.872 and 1.125 and 4.892
IL-6 (Fig. S16c) (MC38 cells; MC38 cells, protein, replicates): 31 pg/mL and 44.92 pg/mL and 38.72 pg/mL and 36.69 pg/mL and 44.27 pg/mL and 53.91 pg/mL and 47.57 pg/mL and 30.74 pg/mL and 39.61 pg/mL
change of concentration in the fecal content by antibiotic treatment [3]: significantly reduced
tcs, tcs-G in colon digesta ([4]; CONV Swiss Webster mice): 35.08 pmol/mg and 44.23 pmol/mg and 53.2 pmol/mg and 70.03 pmol/mg and 36.57 pmol/mg and 25.88 pmol/mg and 61.48 pmol/mg and 14.87 pmol/mg
tcs, tcs-G in colon digesta ([4]; GF Swiss Webster mice): 1.71 pmol/mg and 1.97 pmol/mg and 2.79 pmol/mg and 1.05 pmol/mg and 1.69 pmol/mg
Profile in urine (%) ([5]; TCS-exposed human subjects, n=7 urine samples): 1.57%
Profile in stool (%) ([5]; TCS-exposed human subjects, n=23 stool samples): 99.16%
TCS metabolites in human stool [5, 6]: < LOD and 12.62 pmol/ g stool and 10.84 pmol/ g stool and 388.08 pmol/ g stool and 57.90 pmol/ g stool
TCS metabolites in human urine [5, 6]: < LOD
TCS metabolites in human stool ([5]; treatment time 1 month): 1094.80 pmol/ g stool and 225.14 pmol/ g stool and 1049.03 pmol/ g stool and 626.33 pmol/ g stool and 215.36 pmol/ g stool and 317.47 pmol/ g stool
TCS metabolites in human urine ([5]; treatment time 1 month): < LOD
TCS metabolites in human stool ([5]; treatment time 2 months): 372.82 pmol/ g stool and 713.18 pmol/ g stool and 245.09 pmol/ g stool and 96.24 pmol/ g stool and 905.85 pmol/ g stool
TCS metabolites in human urine ([5]; treatment time 2 months): 8.55 nM urine
TCS metabolites in human stool ([5]; treatment time 3 months): 515.81 pmol/ g stool and 334.49 pmol/ g stool and 515.22 pmol/ g stool and 400.99 pmol/ g stool and 445.98 pmol/ g stool and 105.82 pmol/ g stool
TCS metabolites in human urine ([5]; treatment time 3 months): < LOD
TCS metabolites in human stool ([5]; treatment time 4 months): 633.76 pmol/ g stool and 67.29 pmol/ g stool and 968.25 pmol/ g stool and 633.96 pmol/ g stool and 135.75 pmol/ g stool and 295.56 pmol/ g stool
TCS metabolites in human urine ([5]; treatment time 4 months): 3.06 nM urine and 6.42 nM urine and 11.23 nM urine and 5.52 nM urine
average molar concentration ratio [5, 7]: 99.2%
concentration of free TCS measured in stool (highest) [5, 7]: ≤ 1 pmol/mg tissue
concentration of free TCS measured in stool (highest), equated [5, 7]: ~ 1 µM
TCS concentrations in urine [5, 8]: low-nM range
average molar concentration ratio [5, 8]: 1.6%
colon length (DSS-induced colitis; [9]): reduced
colonic infiltration of immune cells (CD45+ leukocytes, CD45+ F4/80+ macrophages, CD45+ Gr1+ neutrophils) (DSS-induced colitis; [9]): enhanced
crypt damage (DSS-induced colitis; [9]): more severe
expression of pro-inflammatory genes (Tnf-a, Mcp-1, Il-6, Il-17, Il-23) in the colon (DSS-induced colitis; [9]): increased
cd45+(%) (DSS-induced colitis; [10]): 13.9% and 7.52% and 6.6% and 9.17% and 14.3% and 13.5% and 15.4%
f4/80+ (%) (DSS-induced colitis; [10]): 6.98% and 7.38% and 21.2% and 6.4% and 16.3% and 14.9% and 17.1%
gr-1+ (%) (DSS-induced colitis; [10]): 6.98% and 5.74% and 9.62% and 14.5% and 6.12% and 11.4% and 10%
Il-6 (DSS-induced colitis; [11]): 2.766 and 2.25 and 1.456 and 1.055 and 1.808 and 1.047
Il-17 (DSS-induced colitis; [11]): 3.654 and 3.3461 and 1.6638 and 1.675 and 2.194 and 1.456 and 1.44 and 2.099
Il-23 (DSS-induced colitis; [11]): 1.246 and 3.908 and 1.924 and 1.869 and 2.972 and 1.28 and 1.3835 and 2.162
Mcp1 (DSS-induced colitis; [11]): 1.522 and 3.593 and 1.038 and 1.619 and 1.9672 and 1.4511
Tnf-α (DSS-induced colitis; [11]): 18.081 and 1.569 and 15.9712 and 7.287 and 5.139 and 4.495 and 3.411
HE (DSS-induced colitis; DSS colitis mice, histology score, individual animals, Fig.5c): 5 and 10 and 8 and 7 and 9
colon length (cm) (DSS-induced colitis; DSS colitis mice, individual animals, Fig.5b): 5.8 cm and 7.1 cm and 7 cm and 6.3 cm and 6.4 cm and 5.3 cm
